Publication PMC4876393, “Structure of the Dictyostelium Myosin-II Heavy Chain Kinase A (MHCK-A) α-kinase domain apoenzyme reveals a novel autoinhibited conformation” (Scientific Reports, 2016)
Non-standard residues stand in square brackets, D forms with d. Residues, ends and D or L forms follow the SMILES beside them. pT = C[C@@H](OP(=O)(O)O)[C@H](N)C(=O)O

Experiments:
eEF2K = system: eEF2K; design: method as in PMID 22115317; conditions: with and without Ca^2+-calmodulin; ref [40]; cited from earlier work
A-CAT-Δ809 = target: T1, A-CAT-Δ809 (Dictyostelium discoideum, UniProt P42527); experiment: Activation of truncated A-CAT-Δ809 kinase activity by phosphopeptides (Pi-pocket binding); assay type: biochemical; conditions: 22 °C, pH 7.0, mean and standard deviation of at least 3 separate experiments; for Kd: hyperbolic fit of A-CAT-Δ809 kinase activity vs peptide, assayed as described in ref [29], 2 mM MgCl2, 1 mM dithiothreitol, 20 mM TES; for Vmax: kinase activity as a percentage of wild-type A-CAT activity, hyperbolic fit
T1 construct: A-CAT encompasses the α-kinase domain and Thr825 autophosphorylation site of MHCK-A; made in house; host or cells: E. coli (printed for A-CAT and A-CAT-D663A)
T1 sequence (P42527 552-809 limits assumed): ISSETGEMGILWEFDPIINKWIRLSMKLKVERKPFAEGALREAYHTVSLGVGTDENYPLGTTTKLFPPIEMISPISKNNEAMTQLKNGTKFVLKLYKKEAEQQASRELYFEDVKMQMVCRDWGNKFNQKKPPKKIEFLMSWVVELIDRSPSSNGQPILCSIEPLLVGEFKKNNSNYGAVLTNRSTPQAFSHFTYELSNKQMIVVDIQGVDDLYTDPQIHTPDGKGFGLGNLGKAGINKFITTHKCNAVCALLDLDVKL
Method: (c) The kinase activity of A-CAT-Δ809 was assayed in the presence of peptides with the sequences QQG(p)TMVMPD (closed circles) or a QQG(p)TMSMPD (open circles). […] Kinase activities are reported as a percentage of wild-type A-CAT activity.
To test whether a hydrophobic residue in the P + 2 position favors binding to the Pi-pocket, experiments were carried out using a truncated A-CAT (A-CAT-Δ809) that lacks the activating Thr825 site of autophosphorylation and two phosphopeptides: one with a valine and one with a serine at the P + 2 position (QQG(p)TMVMPD and QQG(p)TMSMPD) (Fig. 3c).
Assays were carried out at 22 °C in a buffer containing 2 mM MgCl2, 1 mM dithiothreitol and 20 mM TES, pH 7.0. Kinase assays contained 20 μM myelin basic protein (MBP), 0.5–2 μM A-CAT and 200 μM [γ-^32P]ATP (specific activity 100 cpm/pmol). At each time point, 20 μl aliquots of the reaction mixture were spotted onto squares of Whatman P81 phosphocellulose paper, which were then washed 1% phosphoric acid, immersed in ScintiVerse Universal LS Mixture (Fisher Scientific), and counted using a Beckman LS 9000 scintillation counter. Assays to measure A-CAT-Δ809 activity in the presence of the QQG(p)TMVMPD and QQG(p)TMSMPD peptides were carried out as described[29]. […] Data from the initial linear portion of the time courses were used to calculate kinase and ATPase activity.

A-CAT WT [1] = target: T2, A-CAT WT (Dictyostelium discoideum, UniProt P42527); experiment: Nucleotide binding assay with fluorescent mant-ADP on purified A-CAT, carried out as previously described (ref 51); at least 3 separate experiments.; conditions: SD, n = 3
T2 construct: gene mhkA; A-CAT: alpha-kinase domain and Thr825 autophosphorylation site of MHCK-A; expressed in E. coli
T2 sequence (P42527 552-841): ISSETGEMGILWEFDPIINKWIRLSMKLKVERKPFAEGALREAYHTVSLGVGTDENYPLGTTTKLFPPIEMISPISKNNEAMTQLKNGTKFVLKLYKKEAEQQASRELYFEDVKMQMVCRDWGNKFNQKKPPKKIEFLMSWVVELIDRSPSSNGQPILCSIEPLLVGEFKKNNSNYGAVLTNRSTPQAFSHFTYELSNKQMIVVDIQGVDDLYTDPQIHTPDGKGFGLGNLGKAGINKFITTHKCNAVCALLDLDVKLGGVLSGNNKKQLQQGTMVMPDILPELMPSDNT
Method: (§1) Assays were carried out at 22 °C in a buffer containing 2 mM MgCl2, 1 mM dithiothreitol and 20 mM TES, pH 7.0. Kinase assays contained 20 μM myelin basic protein (MBP), 0.5–2 μM A-CAT and 200 μM [γ-^32P]ATP (specific activity 100 cpm/pmol). At each time point, 20 μl aliquots of the reaction mixture were spotted onto squares of Whatman P81 phosphocellulose paper, which were then washed 1% phosphoric acid, immersed in ScintiVerse Universal LS Mixture (Fisher Scientific), and counted using a Beckman LS 9000 scintillation counter. Assays to measure A-CAT-Δ809 activity in the presence of the QQG(p)TMVMPD and QQG(p)TMSMPD peptides were carried out as described. ATPase activity was assayed using 250 μM ATP and release of inorganic phosphate (Pi) was measured using the Pi ColorLock Gold phosphate detection system (Innova Biosciences). Data from the initial linear portion of the time courses were used to calculate kinase and ATPase activity. Nucleotide binding assays using mant-ATP and mant-ADP were carried out as previously described. Results represent the mean and standard deviation of at least 3 separate experiments.

D663A [2] = target: T3, D663A (Dictyostelium discoideum, UniProt P42527, D663A); experiment: as above; conditions: read-out: mant-ADP Kd; SD, n = 3
T3 construct: gene mhkA; A-CAT: alpha-kinase domain and Thr825 autophosphorylation site of MHCK-A; expressed in E. coli
T3 sequence (P42527 552-841 D663A): T2 sequence (P42527 552-841)
Method: as §1

D663S [3] = target: T4, D663S (Dictyostelium discoideum, UniProt P42527, D663S); experiment: as above; conditions: read-out: mant-ADP Kd; SD, n = 3
T4 construct: gene mhkA; A-CAT: alpha-kinase domain and Thr825 autophosphorylation site of MHCK-A
T4 sequence (P42527 552-841 D663S): T2 sequence (P42527 552-841)
Method: as §1

Y647A [4] = target: T5, Y647A (Dictyostelium discoideum, UniProt P42527, Y647A); experiment: as above; conditions: read-out: mant-ADP Kd; SD, n = 3
T5 construct: gene mhkA; A-CAT: alpha-kinase domain and Thr825 autophosphorylation site of MHCK-A
T5 sequence (P42527 552-841 Y647A): T2 sequence (P42527 552-841)
Method: as §1

A-CAT D663A = experiment: mant-nucleotide binding to A-CAT D663A; design: species or system Dictyostelium; conditions: for Kd: A-CAT D663A, 22 °C, 2 mM MgCl2, 1 mM dithiothreitol, 20 mM TES, pH 7.0, mean and standard deviation of at least 3 separate experiments; for effect of the D663A mutation on nucleotide binding: compared with wild-type A-CAT
Method: as §1

A-CAT D663S = experiment: mant-nucleotide binding to A-CAT D663S; design: species or system Dictyostelium; conditions: for Kd: A-CAT D663S, 22 °C, 2 mM MgCl2, 1 mM dithiothreitol, 20 mM TES, pH 7.0, mean and standard deviation of at least 3 separate experiments; for effect of the D663S mutation on nucleotide binding: compared with wild-type A-CAT
Method: as §1

A-CAT Y647F = experiment: mant-nucleotide binding to A-CAT Y647F; design: species or system Dictyostelium; conditions: 22 °C, 2 mM MgCl2, 1 mM dithiothreitol, 20 mM TES, pH 7.0, mean and standard deviation of at least 3 separate experiments
Method: as §1

A-CAT Y647A = experiment: mant-nucleotide binding to A-CAT Y647A; design: species or system Dictyostelium; conditions: for Kd: A-CAT Y647A, 22 °C, 2 mM MgCl2, 1 mM dithiothreitol, 20 mM TES, pH 7.0, mean and standard deviation of at least 3 separate experiments; for effect of the Y647A mutation on nucleotide binding: compared with wild-type A-CAT
Method: as §1

A-CAT WT [5] = target: T2, A-CAT WT; experiment: Nucleotide binding assay with fluorescent mant-ATP on purified A-CAT, carried out as previously described (ref 51); at least 3 separate experiments.; conditions: SD, n = 3
Method: as §1

D663A [6] = target: T3, D663A; experiment: as above; conditions: read-out: mant-ATP Kd; SD, n = 3
Method: as §1

D663S [7] = target: T4, D663S; experiment: as above; conditions: read-out: mant-ATP Kd; SD, n = 3
Method: as §1

Y647A [8] = target: T5, Y647A; experiment: as above; conditions: read-out: mant-ATP Kd; SD, n = 3
Method: as §1

Y647F = target: T6, Y647F (Dictyostelium discoideum, UniProt P42527, Y647F); experiment: as above; conditions: read-out: mant-ATP Kd; SD, n = 3
T6 construct: gene mhkA; A-CAT: alpha-kinase domain and Thr825 autophosphorylation site of MHCK-A
T6 sequence (P42527 552-841 Y647F): T2 sequence (P42527 552-841)
Method: as §1

Nc1ncnc2c1ncn2[C@@H]1O[C@H](COP(=O)(O)OP(=O)(O)OP(=O)(O)O)[C@@H](O)[C@H]1O [ATP]
ATP binding to eEF2K (eEF2K): binds ATP in the presence and absence of Ca^2+-calmodulin | UV cross-linking of ATP to eEF2K (eEF2K): can be UV cross-linked to ATP only in the presence of Ca^2+-calmodulin

CSCC[C@H](NC(=O)[C@@H](NC(=O)CNC(=O)[C@H](CCC(N)=O)NC(=O)[C@@H](N)CCC(N)=O)[C@@H](C)OP(=O)(O)O)C(=O)N[C@@H](CO)C(=O)N[C@@H](CCSC)C(=O)N1CCC[C@H]1C(=O)N[C@@H](CC(=O)O)C(=O)O [QQG(p)TMSMPD] (H-QQG[pT]MSMPD-OH)
Kd (A-CAT-Δ809): 98 ± 12 µM | Vmax (A-CAT-Δ809): 51 ± 3%

CSCC[C@H](NC(=O)[C@@H](NC(=O)CNC(=O)[C@H](CCC(N)=O)NC(=O)[C@@H](N)CCC(N)=O)[C@@H](C)OP(=O)(O)O)C(=O)N[C@H](C(=O)N[C@@H](CCSC)C(=O)N1CCC[C@H]1C(=O)N[C@@H](CC(=O)O)C(=O)O)C(C)C [QQG(p)TMVMPD] (H-QQG[pT]MVMPD-OH)
Kd (A-CAT-Δ809): 38 ± 12 µM | Vmax (A-CAT-Δ809): 61 ± 4%

CNc1ccccc1C(=O)O[C@H]1[C@@H](O)[C@H](n2cnc3c(N)ncnc32)O[C@@H]1COP(=O)(O)OP(=O)(O)O [mant-ADP, 2'/3'-O-(N-methylanthraniloyl)adenosine 5'-diphosphate]
Kd (A-CAT WT [1]): 15 ± 2 µM | Kd (D663A [2]): 8 ± 2 µM | Kd (D663S [3]): 12 ± 2 µM | Kd (Y647A [4]): 30 ± 2 µM

CNc1ccccc1C(=O)O[C@H]1[C@@H](O)[C@H](n2cnc3c(N)ncnc32)O[C@@H]1COP(=O)(O)OP(=O)(O)O [mant-ADP]
Kd (A-CAT D663A): 8 ± 2 µM | effect of the D663A mutation on nucleotide binding (A-CAT D663A): increased the affinity of A-CAT for nucleotide | Kd (A-CAT D663S): 12 ± 2 µM | effect of the D663S mutation on nucleotide binding (A-CAT D663S): increased the affinity of A-CAT for nucleotide | Kd (A-CAT Y647F): 15 ± 2 µM | Kd (A-CAT Y647A): 30 ± 2 µM | effect of the Y647A mutation on nucleotide binding (A-CAT Y647A): weakened the binding

CNc1ccccc1C(=O)O[C@H]1[C@@H](O)[C@H](n2cnc3c(N)ncnc32)O[C@@H]1CO[P@@](=O)(O)O[P@](=O)(O)OP(=O)(O)O [mant-ATP, 2'/3'-O-(N-methylanthraniloyl)adenosine 5'-triphosphate]
Kd (A-CAT WT [5]): 4.8 ± 0.6 µM | Kd (D663A [6]): 3.2 ± 0.9 µM | Kd (D663S [7]): 2.1 ± 0.5 µM | Kd (Y647A [8]): 10 ± 3 µM | Kd (Y647F): 4.3 ± 1 µM

CNc1ccccc1C(=O)O[C@H]1[C@@H](O)[C@H](n2cnc3c(N)ncnc32)O[C@@H]1COP(=O)(O)OP(=O)(O)OP(=O)(O)O [mant-ATP]
Kd (A-CAT D663A): 3.2 ± 0.9 µM | effect of the D663A mutation on nucleotide binding (A-CAT D663A): increased the affinity of A-CAT for nucleotide | Kd (A-CAT D663S): 2.1 ± 0.5 µM | effect of the D663S mutation on nucleotide binding (A-CAT D663S): increased the affinity of A-CAT for nucleotide | Kd (A-CAT Y647F): 4.3 ± 1 µM | Kd (A-CAT Y647A): 10 ± 3 µM | effect of the Y647A mutation on nucleotide binding (A-CAT Y647A): weakened the binding
